Data as given in PubChem BioAssay AID1919007 (Molecular Pharmacology Branch, DTP, NCI, 2023).

Test system: A498 complex spheroids with HUVEC/MSC, growth
Experiment: Anticancer human tumor A498 cell line growth inhibition [AhR];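 also: seven day exposure starting three days after spheroid seeding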;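 as to viability, T/C: luminescence signal used as a surrogate for viable cells; luminescence viability scaled so 100% equals DMSO vehicle wells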
Details: for IC50: curve of first compound; for viability, T/C: stronger effect = lower value; active = viability on the fitted dose curve at most 10% of control; inactive = the rest
Source text: Multicellular complex tumor spheroid response to aryl hydrocarbon receptor antagonists in combination with a variety of drugs and investigational agents in selected tumor cell lines
The current study was undertaken to assess response to aryl hydrocarbon receptor antagonists in combination with standard-of-care drugs and investigational agents in solid tumor complex spheroid models. Complex spheroids include a stromal component modeled by human endothelial cells (HUVEC) and fibroblasts modeled by human mesenchymal stem cells (MSCs). The concentration ranges selected for each drug and investigational agent were based upon clinically achievable concentrations if the clinical Cmax of the agent was known.
Compounds. The drugs and investigational agents: BAY 2416964 (NSC825713), GNF351 (NSC835774), CH-223191 (NSC835775), CPI-455 (NSC825282), aza-TdCyd (NSC777586), decitabine (NSC127716), belinostat (NSC758774), entinostat (NSC756642), pevonedistat (NSC761192), tazemetostat (NSC777109), talazoparib (NSC765396), olaparib (NSC753686), selinexor (NSC780203), nedisertib (M3814, NSC802822), bortezomib (NSC756655), venetoclax (NSC766270), doxorubicin (NSC123127), elimusertib (BAY189344, NSC800525), ceralasertib (AZD6738, NSC777638), TAK-243 (NSC785004), alisertib (NSC759677), etoposide (NSC141540), topotecan (NSC609699), eribulin (NSC707389), gemcitabine (NSC613327), carboplatin (NSC241240), cisplatin (NSC119875), and SN-38 (NSC673596) were obtained from the National Cancer Institute (NCI) Developmental Therapeutics Program Chemical Repository (32). The FDA-approved anticancer drug set is available from the Developmental Therapeutics Program at https://dtp.cancer.gov/organization/dscb/obtaining/available plates.htm. […] The stock solutions were prepared in dimethyl sulfoxide (DMSO, Sigma-Aldrich, St. Louis, MO, cat. D2650), except for the platinum compounds which were prepared in saline (Quality Biological, Gaithersburg, MD, cat. 114-055-101), at 800-fold the tested concentration and stored at -70 degrees C prior to their use. All drugs and investigational agents were tested over a range starting from a high concentration at or near the clinical Cmax and decreasing in half-log increments. If the clinical Cmax for an agent had not been determined, the highest concentration tested was 10 microM (Table 1).
Cell Culture. All cells were maintained in an incubator at 37 degrees C and 5% CO2 with 95% humidity. The PDC lines were cultured according to standard operating procedures established by the NCI PDMR (https://pdmr.cancer.gov). Briefly, all PDCs were thawed and cultured in Matrigel-coated flasks prepared with a working solution of 1X Ham's F-12 nutrient mix, without supplementation (Invitrogen, Waltham, MA, cat. 11765054), 100 U/mL penicillin-streptomycin (Invitrogen, cat. 15140122), and 2.5% Matrigel (Corning Inc., Corning, NY, cat. 354248) for the first three passages. All PDCs were cultured in complete DMEM/F-12 media containing advanced DMEM/F-12 (Invitrogen, cat. 12634028), 4.9% defined fetal bovine serum, heat inactivated (HyClone Laboratories Inc., Logan, UT, cat. SH30070.03HI), 389 ng/mL hydrocortisone (Sigma-Aldrich, cat. H4001), 9.7 ng/mL human EGF recombinant protein (Invitrogen, cat. PHG0313), 23.4 microg/mL adenine (Sigma-Aldrich, cat. A2786), 97.3 U/mL penicillin-streptomycin (Invitrogen, cat. 15140122), 1.9 mM L-glutamine (Invitrogen, cat. 25030081), and 9.7 microM Y-27632 dihydrochloride (Tocris Bioscience, Bristol, United Kingdom, cat. 1254). The PDCs were cultured in complete DMEM/F12 media without 10 microM Y-27632 dihydrochloride for at least two passages prior to the screen. The established cell lines NCI-H1341 and […] were cultured in DMEM/F-12, HEPES (Invitrogen, cat. 11330032), 5% defined fetal bovine serum (HyClone Laboratories Inc., cat. SH30070.03), ITS premix universal culture supplement [insulin (5 microg/mL), transferrin (5 microg/mL), and selenious acid (5 ng/mL)] […]

[1] = second compound 0.1 µM, first compound 0.0316 µM
[2] = second compound 0.1 µM, first compound 0.1 µM
[3] = second compound 0.1 µM, first compound 0.316 µM
[4] = second compound 0.1 µM, first compound 1 µM
[5] = second compound 0.1 µM, first compound 3.16 µM
[6] = second compound 0.1 µM, first compound 10 µM
[7] = second compound 0.316 µM, first compound 0.0316 µM
[8] = second compound 0.316 µM, first compound 0.1 µM
[9] = second compound 0.316 µM, first compound 0.316 µM
[10] = second compound 0.316 µM, first compound 1 µM
[11] = second compound 0.316 µM, first compound 3.16 µM
[12] = second compound 0.316 µM, first compound 10 µM
[13] = second compound 1 µM, first compound 0.0316 µM
[14] = second compound 1 µM, first compound 0.1 µM
[15] = second compound 1 µM, first compound 0.316 µM
[16] = second compound 1 µM, first compound 1 µM
[17] = second compound 1 µM, first compound 3.16 µM
[18] = second compound 1 µM, first compound 10 µM
[19] = second compound 3.16 µM, first compound 0.0316 µM
[20] = second compound 3.16 µM, first compound 0.1 µM
[21] = second compound 3.16 µM, first compound 0.316 µM
[22] = second compound 3.16 µM, first compound 1 µM
[23] = second compound 3.16 µM, first compound 3.16 µM
[24] = second compound 3.16 µM, first compound 10 µM
[25] = second compound 10 µM, first compound 0.0316 µM
[26] = second compound 10 µM, first compound 0.1 µM
[27] = second compound 10 µM, first compound 0.316 µM
[28] = second compound 10 µM, first compound 1 µM
[29] = second compound 10 µM, first compound 3.16 µM
[30] = second compound 10 µM, first compound 10 µM

Nc1ccccc1NC(=O)c1ccc(CNC(=O)OCc2cccnc2)cc1 + CC(CO)NC(=O)c1cc(-c2ccc(Cl)cc2)nn(-c2cnn(C)c2)c1=O
inactive: viability, T/C [1] 89.4% | viability, T/C [2] 88.8% | viability, T/C [3] 77.7% | viability, T/C [4] 44.6% | viability, T/C [5] 24.5% | viability, T/C [7] 79.5% | viability, T/C [8] 85.8% | viability, T/C [9] 74% | viability, T/C [10] 39.5% | viability, T/C [11] 23.2% | viability, T/C [13] 75% | viability, T/C [14] 75% | viability, T/C [15] 78.5% | viability, T/C [16] 39.2% | viability, T/C [17] 23% | viability, T/C [18] 4.91% | viability, T/C [19] 64.5% | viability, T/C [20] 73.8% | viability, T/C [21] 71.4% | viability, T/C [22] 38.1% | viability, T/C [23] 20.2% | viability, T/C [25] 58.2% | viability, T/C [26] 53.1% | viability, T/C [27] 55.1% | viability, T/C [28] 28.7% | viability, T/C [29] 14.5%
799 nM: IC50 (second compound 0.316 µM)
766 nM: IC50 (second compound 1 µM)
322 nM: IC50 (second compound 10 µM)
active: viability, T/C [6] 1.98% | viability, T/C [12] 2.07% | viability, T/C [24] 1.92% | viability, T/C [30] 0.8%
703 nM: IC50 (second compound 3.16 µM)
963 nM: IC50 (second compound 0.1 µM)

O=C(c1cc(Cc2n[nH]c(=O)c3ccccc23)ccc1F)N1CCN(C(=O)C2CC2)CC1 + CC(CO)NC(=O)c1cc(-c2ccc(Cl)cc2)nn(-c2cnn(C)c2)c1=O
inactive: viability, T/C [1] 105% | viability, T/C [2] 93.3% | viability, T/C [3] 102% | viability, T/C [4] 84.6% | viability, T/C [5] 94.6% | viability, T/C [6] 85.3% | viability, T/C [7] 97% | viability, T/C [8] 106% | viability, T/C [9] 99.9% | viability, T/C [10] 81.2% | viability, T/C [11] 87.4% | viability, T/C [12] 81.7% | viability, T/C [13] 99% | viability, T/C [14] 96.6% | viability, T/C [15] 94.6% | viability, T/C [16] 77.9% | viability, T/C [17] 87.2% | viability, T/C [18] 79.9% | viability, T/C [19] 91.3% | viability, T/C [20] 81.7% | viability, T/C [21] 83.5% | viability, T/C [22] 77.2% | viability, T/C [23] 79% | viability, T/C [24] 70.3% | viability, T/C [25] 71.7% | viability, T/C [26] 67.6% | viability, T/C [27] 69.1% | viability, T/C [28] 61.6% | viability, T/C [29] 64.1% | viability, T/C [30] 62%
> 10000 nM: IC50 (second compound 0.1 µM) | IC50 (second compound 0.316 µM) | IC50 (second compound 1 µM) | IC50 (second compound 3.16 µM) | IC50 (second compound 10 µM)
